According to patent publication US7326721B2 (Hypnion, Inc., priority 2003, dated 2008):
Read-outs that look alike come from different tables or passages of the source.

Legend:
M1 muscarinic receptor = molecular target: T1, M1 muscarinic receptor (Homo sapiens, UniProt P11229); experiment: Muscarinic M1 binding assay ([3H]-scopolamine, N-methyl chloride); set-up: purchased PerkinElmer, Inc., Wellesley, Mass; host or cells: CHO cells
T1 sequence (P11229 1-460): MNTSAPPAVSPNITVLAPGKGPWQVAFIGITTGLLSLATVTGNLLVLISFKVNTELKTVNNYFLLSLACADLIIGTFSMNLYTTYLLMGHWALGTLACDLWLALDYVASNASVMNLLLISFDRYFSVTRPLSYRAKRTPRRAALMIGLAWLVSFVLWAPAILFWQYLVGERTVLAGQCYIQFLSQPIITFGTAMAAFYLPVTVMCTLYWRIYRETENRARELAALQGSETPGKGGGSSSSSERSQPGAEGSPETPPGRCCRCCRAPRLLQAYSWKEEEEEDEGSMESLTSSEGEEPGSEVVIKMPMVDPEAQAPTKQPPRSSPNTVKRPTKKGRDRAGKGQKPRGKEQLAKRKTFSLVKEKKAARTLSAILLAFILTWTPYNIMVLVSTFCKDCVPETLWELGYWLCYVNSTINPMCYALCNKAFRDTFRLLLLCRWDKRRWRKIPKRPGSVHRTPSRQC

[1] = molecular target: Oxidase, MAO-B, Peripheral (Homo sapiens, UniProt P27338); experiment: Table 12 panel: MAO-B; assay type: biochemical; conditions: 1.0E−6, average N=2
Oxidase, MAO-B, Peripheral, sequence (P27338 whole entry): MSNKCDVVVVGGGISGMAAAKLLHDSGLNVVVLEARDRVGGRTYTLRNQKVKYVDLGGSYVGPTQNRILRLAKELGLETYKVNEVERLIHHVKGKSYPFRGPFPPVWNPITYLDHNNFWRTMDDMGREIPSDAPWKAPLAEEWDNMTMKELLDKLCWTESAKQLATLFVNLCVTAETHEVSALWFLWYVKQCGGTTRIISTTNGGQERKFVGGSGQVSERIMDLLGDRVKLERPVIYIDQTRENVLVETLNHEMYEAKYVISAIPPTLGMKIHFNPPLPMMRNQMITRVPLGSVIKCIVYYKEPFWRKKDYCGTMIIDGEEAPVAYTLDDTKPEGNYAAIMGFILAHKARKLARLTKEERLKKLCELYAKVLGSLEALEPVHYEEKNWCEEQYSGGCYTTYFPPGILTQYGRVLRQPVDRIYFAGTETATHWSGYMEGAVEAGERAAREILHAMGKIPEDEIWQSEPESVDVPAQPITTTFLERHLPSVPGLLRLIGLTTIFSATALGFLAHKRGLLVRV
Text: (§1) The percentage inhibition (average; N=2) for these receptors is shown below in Table 12.
(§2) Values in Table 12 are expressed as percentage inhibition of specific binding, and these values represent the average of replicate tubes at each of the concentrations tested.

[2] = molecular target: Oxidase, MAO-A, Peripheral (Homo sapiens, UniProt P21397); experiment: Table 12 panel: MAO-A; assay type: biochemical; conditions: 1.0E−6, average N=2
Oxidase, MAO-A, Peripheral, sequence (P21397 whole entry): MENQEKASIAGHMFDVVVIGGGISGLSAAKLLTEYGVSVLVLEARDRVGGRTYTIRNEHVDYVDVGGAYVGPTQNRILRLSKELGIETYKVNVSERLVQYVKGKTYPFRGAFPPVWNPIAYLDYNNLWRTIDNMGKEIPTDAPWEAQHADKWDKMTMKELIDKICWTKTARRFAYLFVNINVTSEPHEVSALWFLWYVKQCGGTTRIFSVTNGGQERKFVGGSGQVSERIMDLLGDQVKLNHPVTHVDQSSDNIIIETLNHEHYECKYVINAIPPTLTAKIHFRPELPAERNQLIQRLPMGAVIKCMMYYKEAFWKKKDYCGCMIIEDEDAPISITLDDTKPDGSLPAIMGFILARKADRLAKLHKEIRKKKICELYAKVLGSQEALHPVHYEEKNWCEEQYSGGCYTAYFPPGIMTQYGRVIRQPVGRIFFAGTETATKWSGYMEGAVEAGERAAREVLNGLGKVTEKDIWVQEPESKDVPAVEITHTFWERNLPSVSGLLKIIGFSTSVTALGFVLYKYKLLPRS
Text: as §1, §2

adult male Wistar rats = experiment: SCORE-2000 sleep-wakefulness, locomotor activity and body temperature monitoring; assay type: in vivo, rat
Leukotriene, LTD4 = Leukotriene, LTD4 (Homo sapiens, UniProt Q9Y271); experiment: Table 12 panel: Leukotriene, LTD4; conditions: 1.0E−6, average N=2, read-out: percentage inhibition of specific binding
Leukotriene, LTD4, sequence (Q9Y271 whole entry): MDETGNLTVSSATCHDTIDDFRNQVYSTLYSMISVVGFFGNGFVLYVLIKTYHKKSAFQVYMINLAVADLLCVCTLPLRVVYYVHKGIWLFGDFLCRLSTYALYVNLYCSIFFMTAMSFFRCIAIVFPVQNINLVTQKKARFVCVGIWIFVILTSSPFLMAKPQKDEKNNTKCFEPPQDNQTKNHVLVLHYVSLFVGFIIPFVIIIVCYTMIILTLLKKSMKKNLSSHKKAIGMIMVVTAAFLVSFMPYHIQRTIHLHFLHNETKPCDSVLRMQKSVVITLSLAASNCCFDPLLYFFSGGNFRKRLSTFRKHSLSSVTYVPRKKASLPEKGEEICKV
Text: as §1, §2

M2 muscarinic receptor = molecular target: T2, M2 muscarinic receptor (Homo sapiens, UniProt P08172); experiment: Muscarinic M2 binding assay; set-up: purchased PerkinElmer, Inc., Wellesley, Mass; host or cells: CHO cells
T2 sequence (P08172 1-466): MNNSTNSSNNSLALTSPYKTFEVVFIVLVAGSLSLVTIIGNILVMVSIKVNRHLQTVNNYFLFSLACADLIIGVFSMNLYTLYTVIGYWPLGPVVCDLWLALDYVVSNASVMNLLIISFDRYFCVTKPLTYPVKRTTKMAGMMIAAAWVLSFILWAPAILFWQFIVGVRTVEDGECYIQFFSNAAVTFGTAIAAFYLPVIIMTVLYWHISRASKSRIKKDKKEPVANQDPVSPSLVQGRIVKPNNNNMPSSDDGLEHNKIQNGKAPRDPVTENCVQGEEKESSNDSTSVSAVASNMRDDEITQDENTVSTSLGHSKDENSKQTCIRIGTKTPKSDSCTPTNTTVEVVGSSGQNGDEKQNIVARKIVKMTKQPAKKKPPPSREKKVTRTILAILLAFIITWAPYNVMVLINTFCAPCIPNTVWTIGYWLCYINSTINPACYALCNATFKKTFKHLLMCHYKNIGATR

[3] = system: T3, Adrenergic, Alpha 1, Non-selective; experiment: Table 12 panel: Adrenergic, Alpha 1; assay type: binding; conditions: Adrenergic, Alpha 1; 1.0E−6; average N=2
T3 construct: other: Adrenergic, Alpha 1; 1.0E−6; average N=2

[4] = system: Muscarinic, Non-selective, Central; experiment: Table 12 panel: Muscarinic, Central; assay type: binding; conditions: 1.0E−6, average N=2
Text: as §1, §2

[5] = molecular target: Cholecystokinin, CCK2 (CCKB) (Homo sapiens, UniProt P32239); experiment: Table 12 panel: CCK2; conditions: 1.0E−6, average N=2, read-out: percentage inhibition of specific binding
Cholecystokinin, CCK2 (CCKB), sequence (P32239 whole entry): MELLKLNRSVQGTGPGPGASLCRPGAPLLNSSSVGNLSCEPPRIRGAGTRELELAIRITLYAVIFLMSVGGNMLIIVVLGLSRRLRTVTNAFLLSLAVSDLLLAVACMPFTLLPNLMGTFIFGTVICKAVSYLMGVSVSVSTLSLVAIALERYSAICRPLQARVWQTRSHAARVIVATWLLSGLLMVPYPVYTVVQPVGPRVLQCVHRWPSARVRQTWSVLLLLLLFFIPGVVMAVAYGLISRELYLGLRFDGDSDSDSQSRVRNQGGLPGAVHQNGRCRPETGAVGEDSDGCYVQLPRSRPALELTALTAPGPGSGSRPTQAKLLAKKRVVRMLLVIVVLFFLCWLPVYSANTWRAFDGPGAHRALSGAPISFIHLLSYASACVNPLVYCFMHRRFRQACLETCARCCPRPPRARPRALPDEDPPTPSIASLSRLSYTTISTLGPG
Text: as §1, §2

Melatonin, Non-selective = experiment: Table 12 panel: Melatonin; assay type: binding; conditions: 1.0E−6, average N=2
Text: as §1, §2

hERG = hERG (Homo sapiens, UniProt Q12809); experiment: Table 12 panel: hERG binding; set-up: expressed in transfected cells; conditions: human recombinant hERG potassium channel (binding assay), I[Kr] (hERG) (hr), 1.0E−6, average N=2, read-out: percentage inhibition of specific binding
hERG, sequence (Q12809 whole entry): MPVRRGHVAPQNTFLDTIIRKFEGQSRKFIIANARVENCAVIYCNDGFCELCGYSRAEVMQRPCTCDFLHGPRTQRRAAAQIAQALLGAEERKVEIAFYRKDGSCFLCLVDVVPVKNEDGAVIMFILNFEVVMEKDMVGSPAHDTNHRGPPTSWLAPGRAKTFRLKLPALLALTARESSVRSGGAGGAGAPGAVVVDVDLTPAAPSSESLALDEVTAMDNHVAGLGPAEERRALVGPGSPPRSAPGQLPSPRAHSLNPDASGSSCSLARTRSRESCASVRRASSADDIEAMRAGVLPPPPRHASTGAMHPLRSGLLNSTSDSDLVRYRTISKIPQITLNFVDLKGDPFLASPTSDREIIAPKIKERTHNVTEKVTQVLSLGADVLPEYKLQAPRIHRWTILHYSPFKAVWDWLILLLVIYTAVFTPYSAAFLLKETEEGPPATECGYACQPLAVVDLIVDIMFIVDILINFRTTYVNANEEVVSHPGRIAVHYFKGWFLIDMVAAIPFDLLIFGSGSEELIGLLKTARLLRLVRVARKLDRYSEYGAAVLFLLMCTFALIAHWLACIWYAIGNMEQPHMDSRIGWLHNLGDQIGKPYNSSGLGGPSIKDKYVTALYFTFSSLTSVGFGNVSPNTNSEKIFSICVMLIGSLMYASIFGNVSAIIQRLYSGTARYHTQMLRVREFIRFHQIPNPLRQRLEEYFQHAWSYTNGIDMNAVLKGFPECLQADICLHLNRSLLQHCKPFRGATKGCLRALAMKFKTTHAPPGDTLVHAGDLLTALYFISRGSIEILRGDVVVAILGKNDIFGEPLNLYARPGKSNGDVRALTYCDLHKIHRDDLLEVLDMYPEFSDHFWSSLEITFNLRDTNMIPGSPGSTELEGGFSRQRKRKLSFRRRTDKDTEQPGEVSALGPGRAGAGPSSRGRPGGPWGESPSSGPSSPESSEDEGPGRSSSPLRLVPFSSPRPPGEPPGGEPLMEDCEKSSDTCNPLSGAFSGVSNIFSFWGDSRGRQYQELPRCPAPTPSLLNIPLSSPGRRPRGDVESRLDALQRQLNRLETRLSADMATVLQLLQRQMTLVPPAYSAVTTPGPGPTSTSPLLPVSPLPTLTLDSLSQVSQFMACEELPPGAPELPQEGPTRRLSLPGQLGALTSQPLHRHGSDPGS
Text: as §1, §2

M3 muscarinic receptor = M3 muscarinic receptor (Homo sapiens, UniProt P20309); experiment: Muscarinic M3 binding assay; set-up: purchased PerkinElmer, Inc., Wellesley, Mass; host or cells: CHO cells
M3 muscarinic receptor, sequence (P20309 whole entry): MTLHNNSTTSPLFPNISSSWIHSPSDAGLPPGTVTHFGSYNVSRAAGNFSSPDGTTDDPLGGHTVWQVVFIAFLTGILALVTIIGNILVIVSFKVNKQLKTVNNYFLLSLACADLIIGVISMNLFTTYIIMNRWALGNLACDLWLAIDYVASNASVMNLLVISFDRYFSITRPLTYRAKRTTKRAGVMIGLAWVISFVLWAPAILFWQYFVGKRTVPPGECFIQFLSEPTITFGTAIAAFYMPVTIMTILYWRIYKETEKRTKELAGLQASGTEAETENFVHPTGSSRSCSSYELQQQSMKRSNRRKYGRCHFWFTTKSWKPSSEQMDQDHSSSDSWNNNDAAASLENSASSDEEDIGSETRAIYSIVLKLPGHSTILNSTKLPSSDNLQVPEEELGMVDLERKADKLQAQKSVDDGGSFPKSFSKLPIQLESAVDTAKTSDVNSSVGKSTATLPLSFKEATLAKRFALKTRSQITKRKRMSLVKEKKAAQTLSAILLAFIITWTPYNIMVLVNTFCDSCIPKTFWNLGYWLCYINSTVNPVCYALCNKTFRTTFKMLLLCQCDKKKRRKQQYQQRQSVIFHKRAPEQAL

Adenosine, Non-selective = experiment: Table 12 panel: Adenosine, Non-selective; assay type: binding; conditions: 1.0E−6, average N=2
Text: as §1, §2

H1 histamine receptor = molecular target: T4, H1 histamine receptor (Bos taurus, UniProt P30546); experiment: Histamine H1 competitive binding assay ([3H]pyrilamine); set-up: species or system bovine
T4 construct: the receptors were obtained from bovine cerebellar membrane tissue; from tissue; host or cells: bovine cerebellar membranes
T4 sequence (P30546 whole entry): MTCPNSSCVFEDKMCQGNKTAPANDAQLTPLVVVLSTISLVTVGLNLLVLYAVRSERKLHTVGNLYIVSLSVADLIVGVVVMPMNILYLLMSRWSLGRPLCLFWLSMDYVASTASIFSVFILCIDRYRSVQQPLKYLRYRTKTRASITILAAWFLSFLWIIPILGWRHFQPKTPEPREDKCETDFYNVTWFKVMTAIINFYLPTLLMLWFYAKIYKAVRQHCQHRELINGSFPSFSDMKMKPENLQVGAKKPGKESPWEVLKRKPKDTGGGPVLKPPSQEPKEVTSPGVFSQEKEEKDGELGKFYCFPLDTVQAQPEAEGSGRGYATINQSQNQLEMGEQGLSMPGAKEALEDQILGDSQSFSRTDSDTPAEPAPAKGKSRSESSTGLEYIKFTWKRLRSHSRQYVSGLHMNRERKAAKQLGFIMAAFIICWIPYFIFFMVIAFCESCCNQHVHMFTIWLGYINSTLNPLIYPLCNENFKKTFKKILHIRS

telemetered Beagle dogs = experiment: ECG and arterial blood pressure in telemetered Beagle dogs; assay type: in vivo, dog
Description: To determine if HY2901 could produce any changes in QT interval, the compound was studied in telemetered Beagle dogs. Dogs were implanted with devices to continuously monitor ECG and arterial blood pressure. Dogs (groups of 4) were studied in a Latin square cross-over design, with each dog receiving 3 different doses and a placebo. Two studies were conducted with doses of 0.3, 1, 3, 10, and 30 mg/kg. […] The tachycardia persisted for 6–8 hours postdose at 0.3 and 1 mg/kg. A ceiling effect to the heart rate increase seemed to exist with heart rates peaking at approximately 150–160 in both the 10 and 30 mg/kg dose groups.

[6] = 1 h, read-out: percentage inhibition of specific binding

CC(CC(=O)O)N1CCC(=C2c3ccc(F)cc3COc3ccccc32)CC1 (stereo not shown) [Compound 37]
IC50 (M1 muscarinic receptor): > 10 µM | Ki (M1 muscarinic receptor): > 10 µM | inhibition at 1 µM (M1 muscarinic receptor; [6]): 5.11% | percentage inhibition [1]: 4.24% | percentage inhibition [2]: −17.23% ^ | REM inhibition (adult male Wistar rats; 10 mg/kg): did not produce any REM inhibition | body temperature (adult male Wistar rats; 10 mg/kg): no disproportional reduction | locomotor activity (LMA) (adult male Wistar rats; 10 mg/kg): no disproportional reduction | rebound insomnia (adult male Wistar rats; 10 mg/kg): did not produce any REM inhibition or rebound insomnia | Cumulative NREM sleep time increase, adjusted for baseline and relative to vehicle (adult male Wistar rats; 10 mg/kg PO at CT-18): 53 min | absolute average sleep bout (adult male Wistar rats; 10 mg/kg PO at CT-18): 9 min | absolute longest sleep bout post-treatment (adult male Wistar rats; 10 mg/kg PO at CT-18): 18.3 min | average sleep bout length increase, adjusted for baseline and relative to vehicle (adult male Wistar rats; 10 mg/kg PO at CT-18): 5.3 min | longest sleep bout (LUSB), adjusted for baseline and relative to vehicle (adult male Wistar rats; 10 mg/kg PO at CT-18): 10.8 min | peak NREM sleep time (adult male Wistar rats; 10 mg/kg PO at CT-18): 64 % per hour | body temperature (adult male Wistar rats; 30 mg/kg): drop in body temperature occurred only at this high dose | locomotor activity (LMA) (adult male Wistar rats; 30 mg/kg): no disproportional reduction in LMA | rebound insomnia (adult male Wistar rats; 30 mg/kg): No rebound insomnia was observed | Cumulative NREM sleep time increase, adjusted for baseline and relative to vehicle (adult male Wistar rats; 30 mg/kg PO at CT-18): 62 min | absolute average sleep bout (adult male Wistar rats; 30 mg/kg PO at CT-18): 9 min | absolute longest sleep bout post-treatment (adult male Wistar rats; 30 mg/kg PO at CT-18): 25 min | average sleep bout length increase, adjusted for baseline and relative to vehicle (adult male Wistar rats; 30 mg/kg PO at CT-18): 5.6 min | longest sleep bout (LUSB), adjusted for baseline and relative to vehicle (adult male Wistar rats; 30 mg/kg PO at CT-18): 17.1 min | peak NREM sleep time (adult male Wistar rats; 30 mg/kg PO at CT-18): 72 % per hour | REM inhibition (adult male Wistar rats; 30 mg/kg at CT-18): did not produce any appreciable REM inhibition | inhibition at 1 µM (Leukotriene, LTD4): -20.1% | IC50 (M2 muscarinic receptor): > 10 µM | Ki (M2 muscarinic receptor): > 10 µM | inhibition at 1 µM (M2 muscarinic receptor; [6]): 14.6% | percentage inhibition of specific binding [3]: 6.56% | percentage inhibition of specific binding [4]: 12.84% | inhibition at 1 µM [5]: 3.98% | percentage inhibition of specific binding (Melatonin, Non-selective): 11.29% | inhibition at 1 µM (hERG): -5.23% | IC50 (M3 muscarinic receptor; M3 receptor binding (Table 19)): > 10 µM | Ki (M3 muscarinic receptor; M3 receptor binding (Table 19), read-out: Ki): > 10 µM | percentage inhibition of specific binding (Adenosine, Non-selective): 6.49% | IC50 (H1 histamine receptor): 0.0675 µM | Ki (H1 histamine receptor): 0.0258 µM | inhibition at 1 µM (H1 histamine receptor; [6]): 93.1% | Slope (H1 histamine receptor; H1 binding curve (Table 13)): −0.99

CC(C)(CN1CCC(=C2c3ccc(F)cc3COc3ccccc32)CC1)C(=O)O [Compound 49a]
Ki (M1 muscarinic receptor; read-out: Ki M1): > 10 µM | persistence of tachycardia postdose (telemetered Beagle dogs; 0.3 and 1 mg/kg): 6 to 8 h | peak heart rate (telemetered Beagle dogs; 10 and 30 mg/kg dose groups): 150–160 | QT or corrected QT interval (telemetered Beagle dogs; doses of 0.3, 1, 3, 10, and 30 mg/kg): no changes in QT or corrected QT interval at any dose | heart rate effect (telemetered Beagle dogs; doses of 0.3 to 30 mg/kg, intravenous or oral): dose-related sinus tachycardia | persistence of tachycardia (telemetered Beagle dogs; higher doses): 10 to 12 h | blood pressure (telemetered Beagle dogs; paralleled the tachycardia): slight increase in blood pressure | LUSB (adult male Wistar rats; dose 0.3 mg/kg oral at CT-18): 2.8 min | NREM (adult male Wistar rats; dose 0.3 mg/kg oral at CT-18): -6.6 min | LUSB (adult male Wistar rats; dose 1 mg/kg oral at CT-18): 4.3 min | NREM (adult male Wistar rats; dose 1 mg/kg oral at CT-18): 18.8 min | LUSB (adult male Wistar rats; dose 3 mg/kg oral at CT-18): 11.6 min | NREM (adult male Wistar rats; dose 3 mg/kg oral at CT-18): 37.2 min | LUSB (adult male Wistar rats; dose 10 mg/kg oral at CT-18): 14.1 min | NREM (adult male Wistar rats; dose 10 mg/kg oral at CT-18): 45.3 min | LUSB (adult male Wistar rats; dose 30 mg/kg oral at CT-18): 12.9 min | NREM (adult male Wistar rats; dose 30 mg/kg oral at CT-18): 49.1 min | Ki (M2 muscarinic receptor; read-out: Ki M2): > 10 µM | Ki (M3 muscarinic receptor; read-out: Ki M3): > 10 µM | Ki (H1 histamine receptor; read-out: Ki H1): 0.0695 µM
